The values that follow are results of earlier work, collected in patent publication US20220125811A1, “INJECTABLE COMPOSITION FOR INDUCING LIPOLYSIS AND METHOD USING THE SAME” (priority 2020, published 2022).

For this series the following is noted: half saline; 5 mEq sodium bicarbonate (8.4%); 6 cc multivitamin formulation; 10 cc amino acid formulation.

Turning to `O=C([O-])O.[Na+]` [sodium bicarbonate (8.4%), sodium bicarbonate], the “osmolarity of the ingredient amount used in the calculation” value is 10 mOsm.
